# Test results as given in ChEMBL document CHEMBL1201862, “PubChem BioAssay data set” (2004).
#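 Each compound was tested at five concentrations against cells in 96-well plates for 48 hours. GI50 marks 50% less growth.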 Calls of active or inactive are those of the source. Cut-off read from the data, not from the text of the source: active = GI50 up to about 1.1 µM and inactive = higher.
# What was measured:
# Assay in all cases: inhibition of tumour cell growth, NCI panel, 48 h
# [1] = tested on: NCI-H226
# [2] = tested on: HL-60
# [3] = tested on: MOLT-4
# [4] = tested on: OVCAR-5
# [5] = tested on: UACC-62
# [6] = tested on: SF-539
# [7] = tested on: HOP-62
# [8] = tested on: SK-MEL-2
# [9] = tested on: ACHN
# [10] = tested on: SN12C
# [11] = tested on: MCF7
# [12] = tested on: SR
# [13] = tested on: NCI-H460
# [14] = tested on: OVCAR-4
# [15] = tested on: OVCAR-8
# [16] = tested on: SK-MEL-28
# [17] = tested on: M14
# [18] = tested on: K562
# [19] = tested on: RPMI-8226
Compound,GI50 [1],GI50 [2],GI50 [3],GI50 [4],GI50 [5],GI50 [6],GI50 [7],GI50 [8],GI50 [9],GI50 [10],GI50 [11],GI50 [12],GI50 [13],GI50 [14],GI50 [15],GI50 [16],GI50 [17],GI50 [18],GI50 [19]
C[C@@H]1OC2(O)[C@@H]3CCCN3C(=O)N(Cc3ccccc3)N2C1=O (some centres undefined),> 100 µM (inactive),> 100 µM (inactive),> 100 µM (inactive),> 100 µM (inactive),> 100 µM (inactive),> 100 µM (inactive),> 100 µM (inactive),> 100 µM (inactive),> 100 µM (inactive),> 100 µM (inactive),> 100 µM (inactive),> 100 µM (inactive),> 100 µM (inactive),> 100 µM (inactive),> 100 µM (inactive),> 100 µM (inactive),> 100 µM (inactive),,
O=C1/C(=C/c2ccc(Br)s2)NC(=S)N1CN1CCCCC1,32 µM (inactive),15.4 µM (inactive),23.4 µM (inactive),76.6 µM (inactive),26.6 µM (inactive),,75 µM (inactive),0.678 µM (active),46 µM (inactive),34.8 µM (inactive),20.6 µM (inactive),15.8 µM (inactive),36.1 µM (inactive),36.8 µM (inactive),33.3 µM (inactive),41.1 µM (inactive),,23.1 µM (inactive),17.6 µM (inactive)
CC(C)[Si](OC1=C(C(=O)N(C)c2ccccc2Cl)CCCC1)(C(C)C)C(C)C,16 µM (inactive),,14.1 µM (inactive),12.8 µM (inactive),15.7 µM (inactive),18 µM (inactive),18 µM (inactive),14.1 µM (inactive),15.5 µM (inactive),,13.2 µM (inactive),5.43 µM (inactive),12.9 µM (inactive),13.9 µM (inactive),16.2 µM (inactive),19 µM (inactive),16.1 µM (inactive),6.15 µM (inactive),10.3 µM (inactive)
Nc1ccccc1.O=P(O)(O)c1ccccc1,> 100 µM (inactive),> 100 µM (inactive),,> 100 µM (inactive),> 100 µM (inactive),,> 100 µM (inactive),> 100 µM (inactive),> 100 µM (inactive),> 100 µM (inactive),> 100 µM (inactive),> 100 µM (inactive),> 100 µM (inactive),> 100 µM (inactive),> 100 µM (inactive),> 100 µM (inactive),> 100 µM (inactive),> 100 µM (inactive),> 100 µM (inactive)
CCOC(=O)c1cc2cc3c4c(c2oc1=O)CCCN4CCC3,14.7 µM (inactive),16.9 µM (inactive),25.8 µM (inactive),> 100 µM (inactive),,23.5 µM (inactive),26.2 µM (inactive),24.7 µM (inactive),34 µM (inactive),30.8 µM (inactive),23.2 µM (inactive),22.8 µM (inactive),48.3 µM (inactive),34 µM (inactive),22.1 µM (inactive),43.4 µM (inactive),32.3 µM (inactive),38.3 µM (inactive),19.3 µM (inactive)
COC(=O)C1(C(=O)OC)N=C(C)OC1c1ccccn1 (centres undefined),> 100 µM (inactive),> 100 µM (inactive),> 100 µM (inactive),> 100 µM (inactive),> 100 µM (inactive),,> 100 µM (inactive),> 100 µM (inactive),> 100 µM (inactive),> 100 µM (inactive),> 100 µM (inactive),> 100 µM (inactive),> 100 µM (inactive),> 100 µM (inactive),> 100 µM (inactive),> 100 µM (inactive),> 100 µM (inactive),> 100 µM (inactive),> 100 µM (inactive)
C/C1=C/C[C@@H](/C(C)=C/c2csc(C)n2)OC(=O)C[C@H](O)C(C)(C)C(=O)[C@H](C)[C@@H](O)[C@@H](C)CCC1 [EPOTHILONE D],< 0.0001 µM (active),,< 0.0001 µM (active),< 0.0001 µM (active),< 0.0001 µM (active),< 0.0001 µM (active),< 0.0001 µM (active),< 0.0001 µM (active),< 0.0001 µM (active),< 0.0001 µM (active),< 0.0001 µM (active),< 0.0001 µM (active),< 0.0001 µM (active),0.137 µM (active),< 0.0001 µM (active),,< 0.0001 µM (active),< 0.0001 µM (active),< 0.0001 µM (active)
Cc1ccc2nc(-c3ccccc3)cc(=O)n2c1,64.6 µM (inactive),> 100 µM (inactive),> 100 µM (inactive),> 100 µM (inactive),> 100 µM (inactive),> 100 µM (inactive),> 100 µM (inactive),,> 100 µM (inactive),> 100 µM (inactive),> 100 µM (inactive),> 100 µM (inactive),> 100 µM (inactive),> 100 µM (inactive),> 100 µM (inactive),> 100 µM (inactive),> 100 µM (inactive),> 100 µM (inactive),> 100 µM (inactive)
